Reference: patent US12465618B2, “Compositions and methods for degenerative disc regeneration” (University Health Network, priority 2015, dated 2025)

Tests used:
[1] = system: human degenerative disc NP cells; assay: Western blotting of human degenerative disc NP cells; assay type: cell-based; conditions: within 24 hrs
Procedure: After euthanasia, healthy rat lumbar/caudal spine IVDs, injured tail discs and bovine caudal IVD NPs were removed aseptically and the nucleus pulposus (NP) was removed separately and enzymatically digested according to methods established by the present inventors^16. Similarly, human degenerative disc NPs were enzymatically digested using Pronase (0.4%, 1 hr at 37° C.) followed by Collagenase II treatment (0.015%, O/N, 37° C.). The following day, the cells were filtered with a 70p cell strainer and cultured within a hypoxic incubator (NuAire, MN, USA) in 3.5% O2, 5% CO2, in Advanced Dulbecco's modified Eagle's medium (ADMEM) supplemented with 8% fetal bovine serum (FBS) and penicillin and streptomycin (100 U/mL). For treatments, the cells were either cultured in serum free ADMEM (no treatment controls) or treated with interleukin-1β (IL-1β, 10 ng/mL), tumor necrosis factor-alpha (TNFα, 50 ng/mL), connective tissue growth factor (CTGF, 10-100 ng/mL), Wnt-inducible soluble protein 2 (WISP2, 10-100 ng/mL) or transforming growth factor beta 1 (TGFβ1, 5-20 ng/mL) for various time points under hypoxic conditions.
Equal amounts of whole cell or tissue lysates prepared using RIPA lysis buffer were subjected to Western blotting as described earlier^18,19. Total lysates (30 μg) were resolved on 10% sodium dodecyl sulphate-polyacrylamide gels (SDS-PAGE) under reducing conditions and then proteins were electro-transferred onto polyvinyledendifluoride (PVDF) membranes (BioRad, CA). After blocking with 5% non-fat powdered milk in Tris-buffered saline (TBS, 0.1 M, pH=7.4), blots were incubated with rabbit or goat polyclonal/mouse monoclonal primary antibodies at 4° C. overnight. […] Blots were washed three times with TTBS for 15 minutes and protein bands were detected by the enhanced chemiluminescence method (BioRad, CA) on Kodak Hyperfilm.

[2] = system: rat-tail injured disc NPs; assay: Pre-clinical rodent needle puncture disc injury model of DDD, intra-discal injection; assay type: in vivo, Wistar rat
Procedure: 12-week old female Wistar rats (Charles River Laboratories International, Inc., MA, USA) were used in order to develop a pre-clinical rodent model of DDD and to evaluate the therapeutic potential of NCCM, CTGF and TGFβ1 in these pre-clinical rodent models. Experiments were performed in accordance with the Guide for the Care and Use of Laboratory Animals, and the experimental protocols were approved by the ethics approval board of Toronto Western Hospital, Toronto, ON, Canada. The surgical procedure was as follows: Anesthesia was achieved using isofluorane (5 L/min plus 1 L/min O2) and maintained at 3 L/min. Once deeply anaesthetized, the animal was affixed on a stereotactic procedure apparatus (Model 900, Kopf Instruments California USA) with nose cone inhalation. For animal experiments, the tail was shaved and prepped with isopropanol in a sterile manner. Fluoroscopy was used to visualize needle penetration and to ensure that the needle penetrated into the center of the NP. For disc injury, a 26-gauge (G), 35° beveled, 0.75 inches high needle (Hamilton Company, USA) mounted on a Hamilton syringe was used. The needle was advanced completely through the selected tail IVD to penetrate the full thickness inclusive of the annulus fibrosus on both sides of the disc. Confirmation of needle placement was made using fluoroscopy and maintained in position for 2 minutes, withdrawn halfway to the center of the NP and left there for 1 minute and then slowly withdrawn completely over a 1-minute period. The animals were then removed from the stereotactic apparatus and allowed to recover in a warmed cage. At the end of study period i.e. 72 hrs-10 weeks, animals were humanely euthanized using CO2 and each vertebral lumbar/caudal motion segment was dissected aseptically. IVDs were either fixed in formalin for histological analysis or the nucleus pulposus (healthy/injured) was harvested and lysed in RIPA buffer (50 mM Tris, pH=7.4, 150 mM NaCl, 1% NP-40 and protease inhibitor cocktail) for western blotting.
To determine the regenerative potential of NCCM, CTGF or TGFβ1, 4 IVDs per animal of 12 week old rats were injured using a 26G needle as described above. Four weeks post-injury, animals were randomized into groups of six and an intra-discal injection (˜8 μL) of either NCCM, CTGF (100 ng/mL) or TGFβ1 (10 ng/mL) was given under local anesthesia. For NCCM injected animals, the control group consisted of animals that received an intra-discal injection (˜8 μL) of Hybridoma culture medium only, while phosphate buffered saline (PBS, 1×, pH=7.2) served as control for CTGF and TGFβ1 injected animal groups. Six weeks later, the NPs from injured and control discs were harvested and either fixed in formalin for histological analysis or lysed in RIPA lysis buffer for western blotting. Each of this experiment was repeated independently to ensure reproducibility.
The tissues were fixed in 10% formalin and decalcified in 10% EDTA solution. The decalcified disc was initially split in the mid sagittal plane, embedded in paraffin and 5p thick sections were obtained for histological evaluation. Hemaetoxylin and eosin (H&E) and Safranin-O staining was performed to assess general morphology and proteoglycan content in these tissue sections as previously described^16. For immunohistochemistry/immunofluorescence (IF), paraffin-embedded sections (5 μm) of human degenerative disc NP, bovine NP, healthy canines (NCD) and rat (healthy/injured) discs were deparaffinized in xylene, hydrated in gradient alcohol followed by antigen retrieval in Tris-EDTA buffer (pH=9.0). The sections were incubated with hydrogen peroxide (0.3% v/v) in methanol for 15 minutes to quench the endogenous peroxidase activity, followed by blocking with 10% serum to preclude non-specific binding. Thereafter, the slides were incubated with either rabbit or goat polyclonal/mouse monoclonal primary antibodies overnight (O/N) at 4° C. […]

[3] = system: human degenerative disc NP cells; assay: Caspase 9 Lumi-Glo assay, cytokine induced; assay type: cell-based; conditions: 48 hrs
Procedure: Apoptosis induced in NP cells (rat and human) as result of treatment with pro-inflammatory cytokines (IL-1β and TNFα) was determined using Caspase 3/7 and Caspase 9 specific Lumi-Glo assays (Promega, Madison). Briefly, NP cells were plated and treated with either IL-1β alone or in combination with TNFα only or in presence of CTGF and TGFβ1 for 48 hrs, followed by addition of specific reagents for Caspase 3/7 and Caspase 9 as per the manufacturer's instructions. Cells were incubated for another 4 hrs at 37° C., and plates were read in a multi-well luminescence plate reader.

[4] = rat tail injured discs, western blots, FIG. 12(b)

## TGFβ1: Human recombinant transforming growth factor beta 1, Peprotech cat #100-21, identified in NCCM
[1]
  collagen 2 expression (Western blotting): increase
[2]; intra-discal injection four weeks following injury, 10 weeks post-injury, vs vehicle control
  aggrecan and collagen II (immunohistochemical analysis): strong expression
[2]; intra-discal injection four weeks following injury, CTGF 100 ng/mL, TGFβ1 10 ng/mL, 10 weeks post-injury, vs PBS
  histological analysis, Safranin-O staining of NP: healthy disc, rich in NCs
[2]; [4]
  expression of MMP-13 and Cox2 in NP tissue lysates: decreased expression
  stem cell marker Oct4 in NP tissue lysates: restoration
[3]
  IL-1β and TNFα induced caspase 9 activity: significant reduction
